Consider two molecules from US20190248834A1, “ENDOMORPHIN-2, TETRAPEPTIDE DERIVATIVES THEREOF, AND USES THEREOF” (priority 2016, published 2019).

Non-standard residues stand in square brackets, D forms with d. pGlu = O=C1CC[C@@H](C(=O)O)N1

Common to all, as to format: in vivo, human
Assay [1] relates to sub-acute pain of left wrist. As to the kind of experiment: Example 10: analgesic effect on wrist pain, topical. The protocol:
A subject had sub-acute pain of their left wrist, which they twisted while lifting a child.
The subject topically applied an anhydrous composition containing 0.7% (w/v) N-Ac-Tyr-Pro-Phe-Phe-NH2 (SEQ ID NO: 23) in EP73, formulated as described in Example 2, before bedtime. The next morning, about 70% relief of pain was observed. The subject topically re-applied the same composition under plastic film wrap for 2 hours, and the wrist pain was completely eradicated. The subject was free of any wrist pain and the improvement was 100% as judged by clinical evaluation.

Assay [2] deals with severe arthritis of the left hip. Nature of the assay: Example 18: analgesic effect on arthritic hip, topical. The protocol: A subject had severe arthritis of the left hip with pain and inflammation for 6 months.
The subject topically applied a composition containing 0.7% (w/v) N-Ac-Tyr-Pro-Phe-Phe-NH2 (SEQ ID NO: 23) in WEP442 to the left hip and covered the hip with plastic wrap overnight. The pain reduced about 50% in 8 hours. The samen procedure was repeated the following day. […] The analgesic effect observed was 100% improvement as judged by clinical evaluation.

Assay [3] has as its system pain from MTSS. Nature of the assay: Example 22: analgesic effect on medial tibial stress syndrome, topical. The text has this:
A small statured person, caretaker of an over-weight disabled elderly person, every evening suffers pain from MTSS of the left lower leg that is due to repeated use of the left leg to lift their patient throughout the day. Their sleeping has been repeatedly disturbed by the pain. […] They followed this sequence of procedures daily for one week work shift with the same result of rapid absolute relief of pain. During the week of being off from work, the MTSS is absent.

Assay [4] has as its system moderate lower back pain. As to the kind of experiment: Example 23: analgesic effect on lower back pain, topical. The settings on record: 1% (w/v) in WEP442, topical. The text has this:
A subject, working as a house cleaner, complained of moderate lower back pain at the end of a work day.

Assay [5] deals with finger pain following trauma. As to the kind of experiment: Example 31: analgesic effect on painful inflammation following trauma, topical. The following applies: 1% (w/v) in WEP442, topical. How it is done:
A subject, experienced sharp pain in their right index finger while trying to loosen a screw-on lid of a fruit jar with their right hand. After about 10 minutes, the pain became throbbing in nature and very intense. The proximal interphalangeal became swollen and discolored (black and blue) from subcutaneous hemorrhage. […] Discoloration of the joint faded over the next several days.

Assay [6] deals with severe migraine headaches. As to the kind of experiment: Example 41: analgesic effect on migraine headaches, topical. The text has this: A subject with severe migraine headaches associated with nausea and vomiting that had been occurring 3-4 times per month over the past 9-10 years, topically applied a composition containing 1% (w/v) of N-Ac-Tyr-Pro-Phe-Phe-NH2 (SEQ ID NO: 23) in WEP442 to the forehead, brow, eyelids and temporal areas at the onset of headaches. […] The frequency of episodes diminished over the next two months, and the subject reported that they experienced no headaches for at least a 5 week period.

For assay [7], the system named is psoriatic arthritis in the joints of both feet. Nature of the assay: Example 62: analgesic efficacy of psoriatic arthritis, feet, topical. The settings on record: 1% (w/v) in WEP442, topical. How it is done: A subject with plague psoriasis had painful psoriatic arthritis in the joints of both feet for the past 10-12 years. Topical application of a composition containing 1% (w/v) of N-Ac-Tyr-Pro-Phe-Phe-NH2 (SEQ ID NO: 23) in WEP442 relieved the pain so that it was undetectable for 6-8 hours. Daily topical applications of the formulation for 5 days provided the same relief.

Assay [8] deals with psoriatic arthritis of the fingers. Nature of the assay: Example 79: analgesic effect on psoriatic arthritis, topical. The following applies: 0.5% (w/v) in WEP442, topical once daily. The text has this: A subject, presented with psoriatic arthritis of the fingers that was particularly painful in the right index finger joint and proximal joint of the left thumb.
The test system of assay [9] is osteoarthritis of the fingers and wrists. Nature of the assay: Example 82: pain and flexibility of fingers and wrists affected by osteoarthritis, topical. The text has this:
A subject had osteoarthritis of the fingers and wrists for about 10 years, with substantial worsening over the past several months. Symptoms included painful finger joints and wrists. The pain was much worsened by flexion, so that making a first was too painful to try. Moreover, complete flexion had not been possible because of actual physical limitations. Anatomical signs of their disorder, e.g., enlarged finger joints, were conspicuous in their case. […] Additionally, complete flexion of the fingers and making of a tight first could be done without any discomfort.

Assay [10] has as its system chronic osteoarthritis of the knees. Nature of the assay: Example 53: comparative analgesic efficacy in topical treatment of knee osteoarthritis. The settings on record: 1% (w/v) in WEP442, maintenance treatment twice daily. How it is done:
A subject with chronic osteoarthritis of the knees participated in this study. Each tetrapeptide derivative was dissolved in WEP442 to make a 1% (w/v) solution. Early in the morning, the solution was applied to a knee, which was immediately wrapped in plastic film from a roll 5 inches wide. The film wrap was left in place for about 7-8 hours, and then it was removed. Such application was repeated at bedtime and removed several hours later during the night. Each 1% (w/v) solution of tetrapeptide derivative was so applied for 2 days and efficacy was evaluated by the subject. No topical treatment was made during an ensuing interval of 2-3 days, at which time treatment with a 1% (w/v) solution of another derivative was initiated and carried out as described above. In total, six tetrapeptide derivatives were evaluated for analgesic efficacy.
The following tetrapeptide derivative was judged to provide 2+ to 3+ pain relief by clinical evaluation: N-Pa-Tyr-Pro-Phe-Phe-NH2(SEQ ID NO: 64).
After the above evaluation period, maintenance treatment was done with a composition containing 1% (w/v) of N-Pg-Tyr-Pro-Phe-Phe-NH2 (SEQ ID NO: 44) in WEP442 applied twice daily.

For assay [11], the system named is headache. As to the kind of experiment: Example 72: analgesic effect on migraine headache, topical. The following applies: 0.5% (w/v) in WEP442, topical. The text has this: A subject who suffered from migraine headaches, woke up one morning with a headache, the type of which was uncertain. They topically applied to their forehead, periocular and temporal areas a composition containing 0.5% (w/v) of N-Pg-Tyr-Pro-Phe-Phe-NH2 (SEQ ID NO: 44) in WEP442.

Regarding `CC(=O)N[C@@H](Cc1ccc(O)cc1)C(=O)N1CCC[C@H]1C(=O)N[C@@H](Cc1ccccc1)C(=O)N[C@@H](Cc1ccccc1)C(N)=O` [N-Ac-Tyr-Pro-Phe-Phe-NH2], the “improvement by clinical evaluation” value in assay [1] (0.7% (w/v) in EP73, re-applied under plastic film wrap for 2 hours) was determined as 100%; in assay [2] (0.7% (w/v) in WEP442, procedure repeated the following day, another 8 hours) it was 100%. For the same molecule, the relief of pain result in assay [1] (0.7% (w/v) in EP73, topical before bedtime, next morning) is listed as “about 70%”. For the same molecule, the pain reduction entry in assay [2] (0.7% (w/v) in WEP442, under plastic wrap overnight, in 8 hours) is given as “about 50%”. For the same molecule, the pain relief entry was “completely relieved the pain” in assay [3] (1% (w/v) in WEP442, single topical application); “almost complete relief of pain” in assay [4]; “instantaneous total relief of pain” in assay [5]; “Complete relief of pain and other symptoms” in assay [6] (1% (w/v) in WEP442, topical at onset of headaches); “undetectable” in [7]; “complete relief of pain” in [8]. Besides, the pain relief result in [9] (0.8% (w/v) in WEP442, after 1 week, one application every 12 hours) is on record as “complete relief of pain was continually sustained”; in assay [9] (0.8% (w/v) in WEP442, one topical application, within 20 minutes) it was “a degree of improvement of pain”; in [9] (0.8% (w/v) in WEP442, second application, within another 20 minutes), “almost complete relief”. For the same molecule, the “duration of pain relief” value in assay [3] (1% (w/v) in WEP442, topical) was “No pain occurred until the next evening”; in assay [7], 6 to 8 h; in [8] it was 8 h. Moreover, the “time to pain relief” value in assay [3] (1% (w/v) in WEP442, topical) was not above 1 min; in [4], 1 to 2 min; in assay [6] (1% (w/v) in WEP442, topical), 2 to 3 min. Also, the recurrence entry in assay [5] is on record as “No pain returned”. The period without headaches in [6] (1% (w/v) in WEP442, topical, over the next two months) was not below 5 week.
For the molecule “N-Pg-Tyr-Pro-Phe-Phe-NH2 ([pGlu]YPFF-NH2; SMILES NC(=O)[C@H](Cc1ccccc1)NC(=O)[C@H](Cc1ccccc1)NC(=O)[C@@H]1CCCN1C(=O)[C@H](Cc1ccc(O)cc1)NC(=O)[C@@H]1CCC(=O)N1)”, the “knee pain compared to several months earlier” value in [10] is “the knee pain was substantially less”. Also, the headache relief result in assay [11] was “promptly relieved and did not return”.
